From EP0177710A1, “Phenyl urea derivatives” (BAYER AG, priority 1984, dated 1986)

Test system: Unkräutern in Mais
Test: Post-emergence test / greenhouse
Assay type: in vivo
Settings: post-emergence spray, control of weeds in maize, rated after three weeks; compared with comparison substance (A)
Description: Post-emergence-Test/Gewächshaus
Lösungsmittel: 5 Gewichtsteile Aceton
Emulgator: 1 Gewichtsteil Alkylarylpolyglykolether
Zur Herstellung einer zweckmäßigen Wirkstoffzubereitung vermischt man 1 Gewichtsteil Wirkstoff mit der angegebenen Menge Lösungsmittel, gibt die angegebene Menge Emulgator zu und verdünnt das Konzentrat mit Wasser auf die gewünschte Konzentration.
Mit der Wirkstoffzubereitung spritzt man Testpflanzen, welche eine Höhe von 5 - 15 cm haben so, daß die jeweils gewünschten Wirkstoffmengen pro Flächeneinheit ausgebracht werden. Die Konzentration der Spritzbrühe wird so gewählt, daß in 2000 1 Wasser/ha die jeweils gewünschten Wirkstoffmengen ausgebracht werden. Nach drei Wochen wird der Schädigungsgrad der Pflanzen bonitiert in % Schädigung im Vergleich zur Entwicklung der unbehandelten Kontrolle.
Es bedeuten: • O % = keine Wirkung (wie unbehandelte Kontrolle) 100 % = totale Vernichtung

CC(C)n1cc(Oc2ccc(NC(=O)N(C)C)cc2)cn1 [I-1]
selektive herbizide Wirksamkeit: bessere selektive herbizide Wirksamkeit
